According to the Deep4Chem optical property database:

Experiment: solvent given as SMILES

C(=C\c1ccnc(/C=C/c2ccc(N(c3ccccc3)c3ccccc3)cc2)n1)/c1ccc(N(c2ccccc2)c2ccccc2)cc1
absorption maximum (in ClCCl): 402 nm

CN1C(=CC2=C([O-])C(=Cc3oc(-c4ccc(-c5ccccc5)cc4)c[n+]3C)C2=O)C(C)(C)c2ccccc21
absorption maximum (in ClC(Cl)Cl): 606 nm

F[B-]1(F)OC(c2ccc(C(F)(F)F)cc2)=Cc2c3ccccc3cc[n+]21
absorption maximum (in ClC(Cl)Cl): 398.5 nm

CCC1(CC)c2cc(-c3ccc(N(c4ccc(-c5ccc6c(c5)C(CC)(CC)c5cc(N7c8ccccc8C(C)(C)c8ccccc87)ccc5-6)cc4)c4ccc(-c5ccc6c(c5)C(CC)(CC)c5cc(N7c8ccccc8C(C)(C)c8ccccc87)ccc5-6)cc4)cc3)ccc2-c2ccc(N3c4ccccc4C(C)(C)c4ccccc43)cc21
absorption maximum (in ClC(Cl)Cl): 366 nm

CC(C)(C)c1ccc(C#Cc2nc(C#Cc3ccc(C(C)(C)C)cc3)c(C#Cc3ccc(C(C)(C)C)cc3)c(C#Cc3ccc(C(C)(C)C)cc3)c2C#Cc2ccc(C(C)(C)C)cc2)cc1
absorption maximum (in ClCCl): 421 nm

O=C(O)CCCCCn1c2ccc(Br)cc2c(=O)c2cc(S(=O)(=O)O)ccc21
absorption maximum (in O): 416 nm

C=C
absorption maximum (in CCCCCCC): 162 nm

Fc1ccc(-c2cc3c4c(c2)CCc2cc(-c5ccc(F)cc5)cc(c2-4)CC3)cc1
absorption maximum (in ClC(Cl)Cl): 323.56 nm

CC1=[N+]2C(=C(c3ccc4c(c3)Cc3ccccc3-4)c3ccc(C)n3[B-]2(F)F)C=C1c1cc2n(c1)[B-](F)(F)[N+]1=CC=CC1=C2c1c(C)cc(C)cc1C
absorption maximum (in C1CCCCC1): 597.5 nm | absorption maximum (in CCOC(C)=O): 598.5 nm

COc1ccc2cc(/C=C/c3ccc([N+](=O)[O-])cc3)c(=O)oc2c1
absorption maximum (in CC#N): 392 nm

COc1cc(OC)cc(C2=CC(c3ccccc3)=C(c3ccccc3)C2)c1
absorption maximum (in ClCCl): 355 nm

c1cc2cc(c1)c1cccc(c1)c1ccc3ccc4ccc(cc4c3c1)c1cccc(c1)c1cccc2c1
absorption maximum (in Cc1ccccc1): 343 nm

CCOC(=O)C1=C(N)n2c(=O)c3ccccc3c(=O)n2C1c1ccc(C)cc1 (stereo not drawn)
absorption maximum (in CS(C)=O): 365 nm

CCCCN(CCCC)c1ccc2c#cc3cc4c#cc5ccc(C(F)(F)F)cc5c#cc#cc5cc(C(F)(F)F)ccc5c#cc4cc3c#cc3ccc(N(CCCC)CCCC)cc3c#cc#cc2c1
absorption maximum (in ClCCl): 450 nm

COc1ccc(-c2nc(-c3ccc(C)cc3)c3ccccn23)cc1
absorption maximum (in ClC(Cl)Cl): 303 nm

N#Cc1nc(N(Cc2ccc(I)cc2)Cc2ccc(I)cc2)c(C#N)nc1N(Cc1ccc(I)cc1)Cc1ccc(I)cc1
absorption maximum (in ClC(Cl)Cl): 484 nm

CN1C(=CC2=C([O-])C(=CC3=[N+](C)c4ccc(Cl)cc4C3(C)C)C2=O)C(C)(C)c2cc(Cl)ccc21
absorption maximum (in CO): 635 nm | absorption maximum (in ClC(Cl)Cl): 641 nm | absorption maximum (in ClCCl): 641 nm

O=S(=O)([O-])c1cccc2c(O)cccc12
absorption maximum (in O): 304 nm

c1cc2c3c(c1)-c1cccc4ccn(c14)B3n1ccc3cccc-2c31
absorption maximum (in C1CCOC1): 385 nm

Cn1c2nc(=O)[nH]c(=O)c-2nc2ccccc21
absorption maximum (in CC1CCCO1): 459 nm

COc1ccccc1-c1cc2c(o1)=CC1=Cc3cc4oc(-c5ccccc5OC)cc4n3[B-](F)(F)[N+]=21
absorption maximum (in ClC(Cl)Cl): 671 nm

CC1(C)c2ccccc2N(c2ccc(-c3cnc(C#N)nc3)cc2)c2ccccc21
absorption maximum (in Cc1ccccc1): 384 nm

COc1ccccc1-c1c(-c2ccccc2O)nc(-c2ccc(C(F)(F)F)cc2)n1-c1ccc(C)cc1
absorption maximum (in C1CCOC1): 313 nm | absorption maximum (in CC(C)O): 311 nm | absorption maximum (in CO): 309 nm | absorption maximum (in CS(C)=O): 315 nm | absorption maximum (in ClC(Cl)Cl): 314 nm | absorption maximum (in ClCCl): 313 nm

O=C(O)CCCCCn1c2ccccc2c(=O)c2cc(S(=O)(=O)O)ccc21
absorption maximum (in O): 409 nm

O=C1O[B-]2(OC1=O)OC(c1ccccc1)=CC(c1ccccc1)=[O+]2
absorption maximum (in CC#N): 384 nm | absorption maximum (in ClC(Cl)(Cl)Cl): 384 nm

CCN(CC)c1ccc2cc(-c3nc4c5ccccc5c5ccccc5c4n3-c3ccc(C(C)(C)C)cc3)c(=O)oc2c1
absorption maximum (in ClCCl): 410 nm

Cc1ccc(C)c2nc3c(=O)[nH]c(=O)[nH]c3nc12
absorption maximum (in CC#N): 388 nm

Cc1cc(C)c(C2=C3C=c4c(c5ccc(C(C)(C)C)cc5c5cc(C(C)(C)C)ccc45)=[N+]3[B-](F)(F)n3c2cc2c4ccc(C(C)(C)C)cc4c4cc(C(C)(C)C)ccc4c23)c(C)c1
absorption maximum (in C1CCCCC1): 693 nm | absorption maximum (in C1CCOC1): 692 nm | absorption maximum (in CC#N): 686 nm | absorption maximum (in Cc1ccccc1): 698 nm | absorption maximum (in ClCCl): 693 nm

c1ccc2c(-n3c(-c4ccc(-c5ccc(-c6nc7c8ccccc8c8ccccc8c7n6-c6cccc7ccccc67)c6ccccc56)c5ccccc45)nc4c5ccccc5c5ccccc5c43)cccc2c1
absorption maximum (in ClCCl): 334 nm

CCCSc1ccc2n1[B-](F)(F)[N+]1=C(SC#N)C=CC1=C2c1ccccc1
absorption maximum (in CC#N): 538 nm | absorption maximum (in CCCCCC): 555 nm | absorption maximum (in CCOC(C)=O): 549 nm | absorption maximum (in CO): 544 nm | absorption maximum (in ClCCl): 552 nm

CCCCCCOc1cc(/C=C2\C(=O)c3ccccc3C2=C(C#N)C#N)c(OCCCCCC)cc1/C=C1\C(=O)c2ccccc2C1=C(C#N)C#N
absorption maximum (in ClCCl): 548 nm

CCOC(=O)CCCCCn1c2ccccc2c(=O)c2cc3c(cc21)c(=O)c1ccccc1n3CC
absorption maximum (in CO): 528 nm

CN(C)c1ccc(C(=O)Nc2cccc(Br)c2)cc1
absorption maximum (in C1CCCCC1): 310 nm | absorption maximum (in C1CCOC1): 317 nm | absorption maximum (in CC#N): 318 nm | absorption maximum (in CCOCC): 312 nm

CCn1c2ccccc2c2cc(/C=C/c3cccc(/C=C/c4ccc5c(c4)c4ccccc4n5CC)[n+]3CCCS(=O)(=O)[O-])ccc21
absorption maximum (in C1CCOC1): 460 nm | absorption maximum (in CC#N): 454 nm | absorption maximum (in CC(C)=O): 458 nm | absorption maximum (in Cc1ccccc1): 453 nm

C=Cc1cc(OC)cc(OC)c1
absorption maximum (in C1CCCCC1): 299 nm

N#Cc1cc2ccccc2oc1=O
absorption maximum (in C1CCCCC1): 342 nm | absorption maximum (in C1CCOC1): 338 nm | absorption maximum (in CC#N): 336 nm | absorption maximum (in CCOC(C)=O): 339 nm | absorption maximum (in CS(C)=O): 334 nm | absorption maximum (in ClC(Cl)Cl): 340 nm

CC1(C)C(/C=C2\C(=O)C(/C=C3\Nc4ccccc4C3(C)C)=C2[O-])=[NH+]c2ccccc21
absorption maximum (in ClC(Cl)Cl): 654 nm

CCCCN1C(=S)c2cccc3cccc(c23)C1=S
absorption maximum (in CC#N): 437 nm | absorption maximum (in CS(C)=O): 443 nm | absorption maximum (in Cc1ccccc1): 442 nm
